How the values were obtained:
[1] = molecular target: human D3 dopaminergic receptor (D3R) (Homo sapiens, UniProt P35462); test: Competition binding of [3H]-spiperone and GTP-shift (functional binding) in membranes of recombinant Chem-1 cells; settings: for IC50: D3R, [3H]-spiperone 0.5 nM, 95% confidence interval in parentheses; for Na+-Shift (II/I) D3R: IC50 in NaCl + GTP (II) divided by IC50 in MgCl2 + CaCl2 (I); for Intrinsic Efficacy at D3R: classified from the Na+-shift (GTP-shift assay)
[2] = molecular target: T1, D2R (Rattus norvegicus, UniProt P61169); test: Competition binding of [3H]-YM-09151-2 to D2-like receptors in rat striatal membranes
T1 construct: from tissue; host or cells: striatum of adult male Wistar rats
Experimental: Finally, to evaluate the selectivity of the substances, classic binding to D2-like receptors was performed using rat striatal membranes. Adult male Wistar rats (2.5–3 months) were killed by decapitation, their brains were immediately removed on ice and the striatum was dissected and stored in liquid nitrogen until use. This procedure was approved by the Institutional Ethical Committee for Animal Care from the Federal University of Rio de Janeiro (CEUA no. 052/19; 30 April 2019). The striatum was homogenized in a motorized Potter-type apparatus with a Teflon piston at 4 °C at 20 volumes per gram of tissue in ice-cold 50 mM Tris-HCl buffer (pH 7.4) containing 8 mM MgCl2 and 5 mM ethylenediaminetetraacetic acid (EDTA). The resulting suspension was ultracentrifuged at 48,000× g at 4 °C for 20 min. The pellet was resuspended in 20 volumes of the same buffer and incubated at 37 °C for 10 min to remove endogenous neurotransmitters. This suspension was cooled and ultracentrifuged at 48,000× g for 20 min at 4 °C [46]. The final pellet was resuspended and stored in liquid nitrogen until use.
In a medium containing the antagonist radioligand [^3H]-YM-09151-2 0.1 nM, 120 mM NaCl, 5 mM KCl, 5 mM MgCl2, 1.5 mM CaCl2, 1 mM EDTA and 50 mM Tris-HCl (pH 7.2 a 25 °C), 50 µg of […] striatum membrane was incubated in the dark (sodium light) for 60 min at 37 °C. Nonspecific binding was estimated using sulpiride (30 µM).

[3] = IC50 (MgCl2 + CaCl2), medium I: 5 mM MgCl2 and 1.5 mM CaCl2
[4] = IC50 (NaCl + GTP), medium II: 154 mM NaCl and 1 mM GTP

T1 sequence (P61169 whole entry): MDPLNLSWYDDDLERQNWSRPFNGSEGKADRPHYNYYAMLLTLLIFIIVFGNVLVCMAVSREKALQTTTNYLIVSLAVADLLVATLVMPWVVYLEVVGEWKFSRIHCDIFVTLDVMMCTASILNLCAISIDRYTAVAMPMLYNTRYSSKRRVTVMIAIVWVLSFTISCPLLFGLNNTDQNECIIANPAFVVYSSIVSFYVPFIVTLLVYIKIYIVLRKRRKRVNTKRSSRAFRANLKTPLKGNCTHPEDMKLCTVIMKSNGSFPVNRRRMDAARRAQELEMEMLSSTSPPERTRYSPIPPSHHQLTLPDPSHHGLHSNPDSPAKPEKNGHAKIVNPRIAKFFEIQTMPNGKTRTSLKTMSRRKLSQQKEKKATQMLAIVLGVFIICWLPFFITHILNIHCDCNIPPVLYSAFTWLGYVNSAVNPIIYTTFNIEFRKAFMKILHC
Sequence of human D3 dopaminergic receptor (D3R) (P35462 whole entry): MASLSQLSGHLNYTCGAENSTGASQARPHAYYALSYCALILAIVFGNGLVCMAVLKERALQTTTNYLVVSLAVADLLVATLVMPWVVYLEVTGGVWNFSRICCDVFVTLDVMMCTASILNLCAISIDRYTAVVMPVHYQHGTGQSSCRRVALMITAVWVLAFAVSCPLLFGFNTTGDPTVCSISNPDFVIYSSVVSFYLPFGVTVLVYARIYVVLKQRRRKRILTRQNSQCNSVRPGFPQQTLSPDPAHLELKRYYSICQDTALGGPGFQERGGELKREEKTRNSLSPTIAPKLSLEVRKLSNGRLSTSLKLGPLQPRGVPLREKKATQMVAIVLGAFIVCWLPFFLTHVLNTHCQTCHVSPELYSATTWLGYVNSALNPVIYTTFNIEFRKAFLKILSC

Row | SMILES | melting point | IC50 [1, 3] | IC50 [1, 4] | Na+-Shift (II/I) D3R [1] | Intrinsic Efficacy at D3R [1] | Ki [2]
1 | Cc1cc2c(cc1S(=O)(=O)Nc1ccc(CN3CCN(c4ccccc4)CC3)cc1)OCO2 [Compound 5a, 6-Methyl-N-(4-((4-phenylpiperazin-1-yl)methyl)phenyl) Benzo [d] [1,3] Dioxole-5-sulfonamide] | 154 to 156 °C | 1100 nM | 1200 nM | 1.1 | antagonist | 440 nM
2 | COc1ccccc1N1CCN(Cc2ccc(NS(=O)(=O)c3cc4c(cc3C)OCO4)cc2)CC1 [Compound 5b, N-(4-((4-(2-Methoxyphenyl)piperazin-1-yl)methyl)phenyl)-6-methylbenzo [d] [1,3] Dioxole-5-sulfonamide] | 183 to 185 °C | 760 nM | 290 nM | 0.4 | weak inverse agonist | 80 nM
3 | Cc1cc2c(cc1S(=O)(=O)Nc1ccc(CN3CCN(c4cccc(Cl)c4Cl)CC3)cc1)OCO2 [Compound 5c, N-(4-((4-(2,3-Dichlorophenyl)piperazin-1-yl)methyl)phenyl)-6-methylbenzo [d] [1,3] Dioxole-5-sulfonamide] | 192 to 194 °C | 750 nM | 780 nM | 1 | antagonist | 400 nM

Stronger by IC50 [1, 3], values ahead:

Row | melting point | IC50 [1, 3] | IC50 [1, 4] | Na+-Shift (II/I) D3R [1] | Intrinsic Efficacy at D3R [1] | Ki [2] | SMILES
4 | 178 to 180 °C | 420 nM | 990 nM | 2.4 | partial agonist | 820 nM | O=S(=O)(Nc1ccc(CN2CCN(c3ccccc3)CC2)cc1)c1ccc2c(c1)OCO2 [Compound 5d, N-(4-((4-Phenylpiperazin-1-yl) Methyl) Phenyl) Benzo [d] [1,3] Dioxole-5-Sulfonamide]
5 | 149 to 151 °C | 230 nM | 200 nM | 0.9 | antagonist | 100 nM | COc1ccccc1N1CCN(Cc2ccc(NS(=O)(=O)c3ccc4c(c3)OCO4)cc2)CC1 [Compound 5e, N-(4-((4-(2-Methoxyphenyl)piperazin-1-yl)methyl)phenyl) Benzo [d] [1,3] Dioxole-5-sulfonamide]
6 | 163 to 166 °C | 110 nM | 200 nM | 1.8 | partial agonist | 200 nM | O=S(=O)(Nc1ccc(CN2CCN(c3cccc(Cl)c3Cl)CC2)cc1)c1ccc2c(c1)OCO2 [Compound 5f, N-(4-((4-(2,3-Dichlorophenyl)piperazin-1-yl)methyl)phenyl) Benzo [d] [1,3] Dioxole-5-sulfonamide]
